In patent US8765735B2, “Isoxazolines as inhibitors of fatty acid amide hydrolase” (Infinity Pharmaceuticals, Inc., priority 2009, dated 2014):

biological target: T1, human FAAH (Homo sapiens, UniProt O00519); assay: Inhibition of human FAAH (fluorescence assay, AMC arachidonoyl amide substrate); format: biochemical; conditions: solubilized human FAAH from transfected COS-7 cells; 30 min preincubation; 20 μM AMC-arachidonoyl amide; 4 h at room temperature
T1 construct: host or cells: COS-7 cells, transient transfection; 13,000 g membrane fraction solubilised in 1% Triton X-100
T1 sequence (O00519 1-579): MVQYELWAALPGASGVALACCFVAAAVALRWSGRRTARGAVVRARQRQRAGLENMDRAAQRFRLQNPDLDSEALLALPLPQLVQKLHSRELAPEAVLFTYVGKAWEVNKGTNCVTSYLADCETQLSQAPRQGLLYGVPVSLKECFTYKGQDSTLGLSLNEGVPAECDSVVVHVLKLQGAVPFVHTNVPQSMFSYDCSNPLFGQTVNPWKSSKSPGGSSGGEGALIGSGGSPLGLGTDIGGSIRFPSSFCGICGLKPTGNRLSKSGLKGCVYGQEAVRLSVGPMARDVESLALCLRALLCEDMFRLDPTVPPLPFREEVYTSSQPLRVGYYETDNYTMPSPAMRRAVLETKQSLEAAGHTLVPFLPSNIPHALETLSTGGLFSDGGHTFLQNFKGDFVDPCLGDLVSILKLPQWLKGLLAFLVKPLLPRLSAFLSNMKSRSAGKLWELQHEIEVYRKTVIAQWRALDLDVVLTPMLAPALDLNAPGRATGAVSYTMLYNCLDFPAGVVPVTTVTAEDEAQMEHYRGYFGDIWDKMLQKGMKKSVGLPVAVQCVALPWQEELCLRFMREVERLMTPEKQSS
Description: Human FAAH Preparation: COS-7 cells were split the day before, 1:5 into 150 mm×25 mm cell culture dishes (Corning Inc., Cat. No. 430599). Transient transfection took place at 30-40% confluency according to FuGENE 6 Transfection Reagent (Roche, Cat. No. 11814 443 001).
Transfection Procedure: The FuGENE transfection 6 reagent (45 uL) was added to 1410 μL of media (DMEM, serum free without pen/strep) in a 15 mL conical tube and incubated at room temp for 5 minutes, followed by the addition of FAAH plasmid DNA (15 μg) (OriGene Cat. No. TC119221, Genbank Accession No. NM_001441.1, 0.67 ug/uL) and a further incubation of 15 minutes at room temperature. The resulting solution was added into one dish of 30-40% confluent COS-7 cells in a drop-wise manner. The COS-7 cell dish was subsequently incubated for 48 hours. The cells are then harvested.
Harvest procedure: Media was aspirated from the dishes and the cells rinsed with 10 mL PBS. The PBS was removed and 3 mL of PBS added to the dish. The dish was scraped to resuspend the cells, and the subsequent cell suspension collected into a 15 mL conical tube. The cells were pelleted by centrifugation at 1200 rpm for 5 minutes in a bench top centrifuge. PBS was removed and the cell pellet snap frozen in liquid nitrogen and stored at −80° C.
COS-7 cells—FAAH purification: • (1) Fractionation: Frozen cell pellets from transient transfections were thawed on ice and resuspended in 12.5 mM Hepes pH 8.0, 100 mM NaCl, 1 mM EDTA (10 mL/0.2 g cell pellet). The pellets were dounce homogenized and then sonicated to produce cell extract. The cell extract was subsequently centrifuged at 1000 g to remove cellular debris. The pellet was discarded and the supernatant centrifuged at 13,000 g for 20 minutes. The pellet contained membrane bound FAAH. The supernatant was discarded and the pellet resolubilized. • (2) Re-solubilization: The fraction of interest, (13,000 g, membrane fraction) was re-suspended in 2.3 mL re-suspension buffer (20 mM Hepes pH 7.8, 10% v/v Glycerol, 1 mM EDTA, 1% Triton X-100) and the sample incubated on ice for 1 hour and then centrifuged to remove any particulate matter. The supernatant containing solubilized human FAAH was aliquoted and snap frozen in liquid nitrogen and stored at 80° C. until use. • (3) Characterization: Protein Concentration determined by Bradford assay. • SDS gel and Western blot to confirm presence of FAAH • FAAH activity assay • Km determination—96-well assay • Linear dependence—96-well assay • Standard compound Ki determination—384-well assay
Human FAAH assay; Experimental Protocol: A 0.1 mg/mL Human FAAH solution was made up in FAAH reaction buffer, and 24 ul pipeted into a 384 well plate. To this was added 1 μL of a 3 fold serially diluted inhibitor from a DMSO stock solution. The FAAH solution and inhibitor were incubated for 30 minutes at room temperature. The FAAH reaction was initiated by the addition of 25 μL of 40 μM AMC Arachidonoyl Amide in FAAH reaction buffer, yielding a final reaction human FAAH preparation concentration of 0.05 mg/ml and AMC-Arachidonoyl substrate concentration of 20 μM, reaction volume 50 μL. The reaction was allowed to proceed for 4 hours at room temperature. The reaction was stopped by the addition of 25 μL 12 μM a-ketoheterocycle (Cayman Chemicals, catalogue #10435). The microtiter plate was read in the envision plate reader.
The raw fluorescence was plotted on the y axis and the inhibitor concentration on the x axis to give a dose response inhibition curve. The data was fitted to a single site competitive inhibition equation, fixing the Km for the human enzyme to 12 μM and 9 μM respectively.

Row | SMILES | Ki
1 | Clc1ccc(CN2CCC3(CC2)CC(Br)=NO3)cc1Cl [III-25] | ≤ 100 nM
2 | CC(C)(C)OC(=O)N1CCC[C@@]2(CC1)CC(Br)=NO2 [III-12a] | ≤ 100 nM
3 | BrC1=NOC2(CCN(Cc3ccccc3)CC2)C1 [III-19] | ≤ 100 nM
4 | O=C(O)c1ccc(OC2=NO[C@@]3(CCc4cc(OC(F)(F)F)ccc43)C2)cn1 [III-74b] | ≤ 100 nM
5 | Clc1ccc(CN2CCC3(CC2)CC(Oc2cncnc2)=NO3)cc1 [III-52] | ≤ 100 nM
6 | BrC1=NOC2CC(OCc3ccccc3)CC12 (centres unmarked) [III-42] | 100 to 1000 nM
7 | C[N+]1(C2=NOC3(CCN(C(=O)OCc4ccccc4)CC3)C2)CCCC1 [III-60] | ≥ 1000 nM
8 | O=C(OCC(Cl)(Cl)Cl)N1CCC2(CC1)CC(Br)=NO2 [III-38] | 100 to 1000 nM
